From PubChem BioAssay AID264 (DTP/NCI, 2004)
Records with an inconclusive call do not appear. Numbered stars: 1 amine (or outer) side, 2 acyl side, 3 side chain; on linkers, the order of the positions; unused ones are H or OH. Square brackets hold non-standard residues; d marks the D form. Peptide text beside a SMILES is read from it. * marks the point of attachment. X2 = CCC(=O)CC1CC(C)CC(C(=O)[*:2])N1[*:1]; X1 = CCCCCCCCC(C)C(=O)*; Aib = CC(C)(N)C(=O)O; X3 = CC(CN(C)CCO)N*

Tested on: nude mice, LX-1 lung xenograft intrarenal, tumor weight T/C
Test: NCI In Vivo Anticancer Drug Screen. Data for tumor model Human Lung LX-1 Xenograft (intrarenal inoculation) in NU/NU Swiss (nude) mice
Conditions: endpoint: mean tumor weight change, higher = larger tumour
In short: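 Compound-treated mice carrying transplanted tumors were compared with vehicle-treated controls. Tumor size was the measured end point, and the value is the treated-group measurement divided by the control-group measurement (T/C).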

[1] = dose: 150.0 mg/kg/injection, schedule: Q04DX003 (sc), vehicle: Klucel (hydroxypropylcellulose) (HPC)
[2] = dose: 150.0 mg/kg/injection, schedule: Q04DX003 (sc), vehicle: saline with Tween-80

Q: For NC(=O)c1ncn(C2OC(CO)C(O)C2O)c1O (centres undefined), which T/C [1] is on record?
A: 99 % of control

Q: CC(=O)OCC1OC([S-])C(OC(C)=O)C(OC(C)=O)C1OC(C)=O.CC[PH+](CC)CC.CC[PH+](CC)CC.[Au].[Au] (centres undefined) was tested. Which T/C (dose: 3.12 mg/kg/injection, schedule: Q04DX003 (sc), vehicle: Klucel (hydroxypropylcellulose) (HPC)) did it give?
A: 110 % of control

Q: And the T/C (dose: 6.25 mg/kg/injection, schedule: Q04DX003 (sc), vehicle: Klucel (hydroxypropylcellulose) (HPC))?
A: 88 % of control

Q: And the T/C (dose: 12.5 mg/kg/injection, schedule: Q04DX003 (sc), vehicle: Klucel (hydroxypropylcellulose) (HPC))?
A: 75 % of control

Q: For CCCCCCCCC(C)C(=O)N1CCCC1C(=O)N1C(CC(=O)CC)CC(C)CC1C(=O)NC(C)C(=O)NC(C)(C)C(=O)NC(C)(C)C(=O)NC(C(=O)NC(C)C(=O)NC(C)(C)C(=O)NC(C)(C)C(=O)NC(C)CN(C)CCO)C(C)CC (centres undefined) (X1-P[X2]A[Aib][Aib]IA[Aib][Aib]-X3; configuration not given here), which T/C (dose: 5.0 mg/kg/injection, schedule: Q04DX003 (sc), vehicle: Klucel (hydroxypropylcellulose) (HPC)) is on record?
A: 270 % of control

Q: What does the source list for O=C(O)CSc1c(Cl)c(=O)oc2ccc(Cl)cc12?
A: T/C [1]: 52 % of control; T/C (dose: 300.0 mg/kg/injection, schedule: Q04DX003 (sc), vehicle: Klucel (hydroxypropylcellulose) (HPC)): 70 % of control; T/C (dose: 600.0 mg/kg/injection, schedule: Q04DX003 (sc), vehicle: Klucel (hydroxypropylcellulose) (HPC)): 82 % of control; T/C (dose: 1200.0 mg/kg/injection, schedule: Q04DX003 (sc), vehicle: Klucel (hydroxypropylcellulose) (HPC)): 165 % of control

Q: Which results are given for N#CC(=C1SCS1)[N+](=O)[O-]?
A: T/C (dose: 6.0 mg/kg/injection, schedule: Q04DX003 (sc), vehicle: saline): 79 % of control; T/C (dose: 12.0 mg/kg/injection, schedule: Q04DX003 (sc), vehicle: saline): 103 % of control; T/C (dose: 24.0 mg/kg/injection, schedule: Q04DX003 (sc), vehicle: saline): 109 % of control; T/C (dose: 48.0 mg/kg/injection, schedule: Q04DX003 (sc), vehicle: saline): 94 % of control

Q: For Nc1n[nH]c(N)n1, which T/C (dose: 200.0 mg/kg/injection, schedule: Q01DX010 (sc), vehicle: saline) is on record?
A: 109 % of control

Q: And the T/C (dose: 400.0 mg/kg/injection, schedule: Q01DX010 (sc), vehicle: saline)?
A: 106 % of control

Q: What about the T/C (dose: 800.0 mg/kg/injection, schedule: Q01DX010 (sc), vehicle: saline) of the same molecule?
A: 84 % of control

Q: For CCN(CC)CCCNc1nccc2c(C)c3[nH]c4ccncc4c3cc12, which T/C (dose: 5.0 mg/kg/injection, schedule: Q01DX010 (sc), vehicle: other) is on record?
A: 59 % of control

Q: And the T/C (dose: 10.0 mg/kg/injection, schedule: Q01DX010 (sc), vehicle: other)?
A: 49 % of control

Q: How did the T/C (dose: 3.0 mg/kg/injection, schedule: Q01DX010 (sc), vehicle: water) turn out when Cc1c(N)nc(C(CC(N)=O)NCC(N)C(N)=O)nc1C(=O)NC(C(=O)NC(C)C(O)C(C)C(=O)NC(C(=O)NCCc1nc(-c2nc(C(=O)NCCCNCCCc3ccccn3)cs2)cs1)C(C)O)C(OC1OC(CO)C(O)C(O)C1OC1OC(CO)C(O)C(OC(N)=O)C1O)c1cnc[nH]1 (centres undefined) was run?
A: 16 % of control

Q: What about the T/C (dose: 12.0 mg/kg/injection, schedule: Q01DX010 (sc), vehicle: water) of the same molecule?
A: -82 % of control

Q: What does the source list for O=C1C=C(C2OC(CO)C(O)C2O)C(=O)N1 (centres undefined)?
A: T/C (dose: 6.25 mg/kg/injection, schedule: Q01DX010 (sc), vehicle: saline): 37 % of control; T/C (dose: 12.5 mg/kg/injection, schedule: Q01DX010 (sc), vehicle: saline): 46 % of control; T/C (dose: 25.0 mg/kg/injection, schedule: Q01DX010 (sc), vehicle: saline): 66 % of control

Q: What does the source list for CCCCCCCCCCCCCCCCCC(=O)Nc1ccn(C2OC(CO)C(O)C2O)c(=O)n1 (centres undefined)?
A: T/C (dose: 75.0 mg/kg/injection, schedule: Q04DX003 (sc), vehicle: saline with Tween-80): 115 % of control; T/C [2]: 41 % of control; T/C (dose: 300.0 mg/kg/injection, schedule: Q04DX003 (sc), vehicle: saline with Tween-80): 38 % of control; T/C (dose: 600.0 mg/kg/injection, schedule: Q04DX003 (sc), vehicle: saline with Tween-80): 30 % of control

Q: With Nc1nc2c(C(=O)N3CCCC3)nnn2c2ccccc12 as the molecule, how does the T/C [2] read?
A: 55 % of control

Q: Which results are given for O=C[C@@H](CO)O[C@H](C=O)n1cnc2c(=O)[nH]cnc21?
A: T/C (dose: 100.0 mg/kg/injection, schedule: Q04DX003 (sc), vehicle: suspension in saline): 71 % of control; T/C (dose: 200.0 mg/kg/injection, schedule: Q04DX003 (sc), vehicle: suspension in saline): 57 % of control; T/C (dose: 400.0 mg/kg/injection, schedule: Q04DX003 (sc), vehicle: suspension in saline): 59 % of control; T/C (dose: 800.0 mg/kg/injection, schedule: Q04DX003 (sc), vehicle: suspension in saline): 54 % of control

Q: Which results are given for C=C1C(=O)C2=CC1CCC(=O)C1(C)CCC(OC(C)=O)C(C)(C)C1CC2O (centres undefined)?
A: T/C (dose: 60.0 mg/kg/injection, schedule: Q04DX003 (sc), vehicle: Klucel (hydroxypropylcellulose) (HPC)): 121 % of control; T/C (dose: 120.0 mg/kg/injection, schedule: Q04DX003 (sc), vehicle: Klucel (hydroxypropylcellulose) (HPC)): 57 % of control
